Earlier results on 4 compounds are cited in paper PMC11604869, “Stereoselective block of the hERG potassium channel by the Class Ia antiarrhythmic drug disopyramide” (Cellular and Molecular Life Sciences: CMLS, 2024).

The subject of series [1] is rate corrected QT interval. The arrangement: method as in PMID 2439842. The settings on record: for effect on rate corrected QT interval: acute infusion, healthy human volunteers.
For series [2] the following is noted: plasma.
Details of series [3]: method as in PMID 6740739.
Series [4] deals with rabbit ventricular ITO. The arrangement: method as in PMID 9550298. Conditions: 30 μM.
The subject of series [5] is rat ventricular ITO. The arrangement: method as in PMID 11327018. Conditions: 100 μM.
Series [6] deals with hERG. Also on record: method as in PMID 12466236.

As for `CC(C)N(CC[C@](C(N)=O)(c1ccccc1)c1ccccn1)C(C)C` [S(+) disopyramide], the “effect on rate corrected QT interval” value in series [1] is listed as “prolongation of the rate corrected QT interval”. Moreover, in series [1] (compared with R(−) disopyramide), the “negative inotropic effect in humans” value was “smaller negative inotropic effect”. Moreover, in series [2], the unbound fractions is on record as 0.208.

Take `CC(C)N(CCC(C(N)=O)(c1ccccc1)c1ccccn1)C(C)C` (racemic) [racemic disopyramide, 4-(diisopropylamino)−2-phenyl-2-(pyridin-2-yl) butanamide]: the “therapeutic total plasma levels” value in series [3] was 6 to 8 µM. Further, the “reduction of rabbit ventricular ITO amplitude” value in series [4] is ~ 33%. The “effect on rat ventricular ITO” value in series [5] was “no effect”.

As for `CCCCN1CCCC[C@H]1C(=O)Nc1c(C)cccc1C` [levobupivacaine], in series [6], the “potency of IhERG inhibition relative to dextrobupivacaine” value is reported as “twofold”.

With `CC(C)N(CC[C@@](C(N)=O)(c1ccccc1)c1ccccn1)C(C)C` [R(−) disopyramide], the “effect on rate corrected QT interval” value in series [1] is “not”. The unbound fractions in series [2] is 0.338.
